Measured values taken from publication PMC12503906, “Novel Pyrazolo [1,5‐a]−1,3,5‐Triazine Derivatives as CDK7 Inhibitors: Synthesis and Biological Insights in Pancreatic Ductal Adenocarcinoma Models” (Chemmedchem, 2025).
Where “and” joins values, the source holds several entries; their conditions need not be identical. Equal entries are not always repeated. Where two headings read alike, the source gives them in different places.

Experiments:
PATU‐T GR = experiment: SRB chemosensitivity assay, gemcitabine resistant PATU‐T GR cells; format: cell-based
Method: Three lines of immortalized PDAC cells were selected as representative phenotypes: mesenchymal (PATU‐T), quasimesenchymal (PANC‐1), and an epithelial clone of SUIT 2 cells (SUIT 2.28). Cells were cultured in noncoated T‐75 and T‐25 flasks under adherent conditions, using 1× DMEM (Gibco, 41,966,029) for PATU‐T and RPMI (Gibco, 21,875,034) for SUIT 2.28 and PANC‐1, both supplemented with 10% NBCS and 1% P/S. Additional employed models were the PDAC3 cells, a primary cell culture, the PSCs, which were immortalized healthy pancreatic cells, and the PATU‐T‐GR, which was a gemcitabine resistant model of PATU‐T. PDAC3 and PSCs were cultivated using complete RPMI medium, while PATU‐T‐GR required complete DMEM medium. For seeding, cells were detached with Trypsin‐EDTA (0.05%) (GibcoTM, 25,300–096) and were consequently counted using the Automated Cell Counter (Luna‐II, Westburg). Cells were then plated on 96‐ or 6‐well plates depending on the planned experiment.
The Sulforhodamine B (SRB) chemosensitivity assay was used to measure cytotoxicity and cell proliferation post drug treatment. At day 0, 3–6 × 10^3 cells were seeded in a 96‐well plate, depending on the cell line. At day 1, cells were attached and ready to be treated. For the calculation of the IC50, drug dilutions for the compounds 1b, 1c, 1d, 1e, 1g, 1hr, 1i, 1j, and LDC4297 (MedChemExpress, HY‐12,653) were prepared in dilution trays and eight different concentrations were included. These were added in triplicates to the cells, which were then incubated for […] at 37 °C in 5% CO2. During day 1, the control plate was fixed with 50% Trichloroacetic acid (TCA), as intended to be the baseline plate used for the normalization of the data. 72 h post‐treatment, the cells were fixed with TCA, and placed at 4 °C for about 2 h. The plates were then washed with distillated water and left to dry under the hood with ventilation. Subsequently, plates were stained with 0.4% SRB for 15 min and washed with 1% acetic acid to remove excess stain. Once dried again, the protein‐bound SRB was dissolved in 10 mM TRIS, and the plates were placed on a shaker for 10 min per plate. Lastly, the absorbance was measured at 492 nm with a spectrophotometer (Synergy HT, BioTek). The absorbance data obtained were normalized to the day 1 control, and the percentage of cell growth in relation to the control was calculated using the following formula. (1) %Cell growth=Mean OD treatment−Mean OD day0/Mean OD control−Mean OD day0×100
The percentage of proliferation and their respective standard deviations were used to perform statistical analysis in GraphPad Prism software v 10 (GraphPad Software, San Diego, CA). Data were normalized to the day 0 control and to their own untreated 72 h control. […]

SUIT 2.28 = experiment: Wound healing assay, SUIT 2.28; format: cell-based
Method: The wound healing assay was used to test the migratory ability of the selected cells post‐treatment. Cells (5 × 10^4 /well) were seeded on 96‐well. After 24 h, cells reached the optimal 100% confluency, and an artificial wound was created with a 96‐well Pintool Scratcher. The cells were immediately washed with complete medium, in order to remove cell debris after the scratch, and images of the wells were captured at time 0 h, right before the addition of the treatment. Each drug (1b and 1g) was previously diluted in the respective medium at two different concentrations: 1 × IC50 and 4 × IC50 (according to the cell specific IC50 value) and were then added to the cells. Images were then taken at timepoints 4, 8, 20, and 24 h using the Leica microscope with a JAI TMC‐137 camera to assess wound closure. The images were analyzed using the Universal Grab 6.3 software (DCILabs), and the obtained data were used to determine the percentage of migration of the cells, using the following formula. (2) % Migration=Mean width of the wound atT=0−Mean width of the wound atT=X/Mean width of the wound atT=0×100

CDK7 = CDK7 (Homo sapiens, UniProt P50613); experiment: In vitro CDK7 enzyme inhibition assay (ADP‐Glo); format: biochemical; parameters: purchased Promega Corporation VA7402
Method: The CDK7 enzyme inhibition assay was conducted using the ADP‐Glo Kinase Assay (VA7402, Promega Corporation, Madison, WI, USA) according to the manufacturer's instructions. In this assay, CDK7 catalyzes the conversion of ATP to ADP. The reaction was terminated by adding the ADP‐Glo reagent, which depletes residual ATP. Subsequently, the kinase detection reagent was introduced to convert ADP back into ATP, which was then measured via a luciferase reaction, producing luminescence. The assay was carried out at room temperature, using DMSO as the solvent for the tested compounds. Each compound was tested at eight different concentrations. […] Luminescence was recorded using a BioTek plate reader (BioTek Instruments Inc.), as previously described.^[ [39] ^] The percentage of enzyme inhibition was determined for each compound at different concentrations, and mean IC50 values of triplicate experiments were calculated using GraphPad Prism.

Bax/Bcl‐2 = Bax/Bcl‐2 ratio by RT‐PCR, PDAC3 cells; format: cell-based
Method: In order to understand modulation of downstream genes of CDK7, gene expression analysis by qPCR was performed in all cell lines. Cells (5 × 10^5/well) were seeded in 6‐well plates and treated with the compounds 1b and 1g at 1× and 4 × IC50 concentrations. Cell lysates were collected 24 h post‐treatment using 300 µL of TRIzol Reagent (Ambion, 15,596,018) per well. Total RNA was extracted by mixing 60 µL of chloroform to the samples, incubating for 3 min and centrifuging at 12,000 rcf for 15 min at 4 °C. The upper aqueous phase containing RNA was transferred to a new Eppendorf and mixed with 120 µL of cold isopropanol in order to allow the RNA to precipitate. Samples were incubated at RT for 10 min and were then centrifuged at 12,000 rcf for 10 min at 4 °C. The isopropanol was carefully removed, and the pellet was washed twice with 70% ETOH. Pellets were left to air dry and consequently resuspended in RNAse‐free water. Samples were left agitation on a thermomixer at 55 °C for 10 min at 600 rpm and were then quantified through NanoDrop technology (Thermo Scientific, NanoDrop One/One^c). RNA samples were stored at −80 °C.
In order to perform cDNA synthesis, the First Strand cDNA synthesis kit (Thermo Scientific, K1612) was used. The previously isolated RNA was mixed with 1 µL of oligo dT18 primer into a pcr tube. Nuclease free water was added to reach a final volume of 11 µL. Samples were centrifuged at 1200 rcf for 5 min and were then placed on a thermomixer at 65 °C for a few minutes. A master mix was prepared, including 4 µL of 5× reaction buffer, 1 µL of ribolock RNAse inhibitor, 2 µL of dntp mix (10 mM), and 2 µL of M‐mulv reverse transcriptase for each sample. In total 9 µL of master mix were added to each vial. Samples were centrifuged again and were finally synthesized, following a cycle of 60 min at 37 °C and 5 min at 70 °C. cDNA was now finally synthesized and could be stored at −20 °C. RT‐PCRs reactions were performed using SYBR Green (Bio‐Rad, 1,725,271) (5 µL per sample), primer mix (0.3 µM) (2 µL per sample), and cDNA (10 ng µL^− ^1) (3 µL per sample). […] RT‐PCR assays were carried out in a GeneAmp 5700 Sequence Detection System programmed to hold at 50 °C for 30 min, to hold at 95 °C for 10 min, and to complete 45 cycles of 95 °C for […] and 50 °C for 1 min. The genes that were investigated are shown in Table 5 , with their respective forward and reverse primer sequences.

CDK7, sequence (P50613 whole entry): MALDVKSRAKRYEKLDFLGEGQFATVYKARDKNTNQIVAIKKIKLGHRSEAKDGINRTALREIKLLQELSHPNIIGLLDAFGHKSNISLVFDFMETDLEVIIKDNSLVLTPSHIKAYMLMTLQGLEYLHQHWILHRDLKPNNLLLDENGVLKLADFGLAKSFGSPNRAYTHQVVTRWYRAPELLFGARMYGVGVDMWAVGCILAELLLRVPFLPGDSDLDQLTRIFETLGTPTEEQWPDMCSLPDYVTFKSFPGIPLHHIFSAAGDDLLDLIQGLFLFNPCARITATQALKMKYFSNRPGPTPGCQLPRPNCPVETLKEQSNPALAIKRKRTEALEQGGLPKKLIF
CDK7, sequence (P51946 whole entry partner): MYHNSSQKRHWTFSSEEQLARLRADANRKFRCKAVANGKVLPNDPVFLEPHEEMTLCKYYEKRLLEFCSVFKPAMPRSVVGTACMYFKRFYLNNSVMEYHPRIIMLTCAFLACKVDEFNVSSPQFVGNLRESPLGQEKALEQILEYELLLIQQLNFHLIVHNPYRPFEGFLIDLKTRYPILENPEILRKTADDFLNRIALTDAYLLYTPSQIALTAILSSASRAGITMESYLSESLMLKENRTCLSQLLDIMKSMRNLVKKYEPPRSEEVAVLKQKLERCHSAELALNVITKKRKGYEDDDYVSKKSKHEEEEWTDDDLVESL
CDK7, sequence (P51948 whole entry partner): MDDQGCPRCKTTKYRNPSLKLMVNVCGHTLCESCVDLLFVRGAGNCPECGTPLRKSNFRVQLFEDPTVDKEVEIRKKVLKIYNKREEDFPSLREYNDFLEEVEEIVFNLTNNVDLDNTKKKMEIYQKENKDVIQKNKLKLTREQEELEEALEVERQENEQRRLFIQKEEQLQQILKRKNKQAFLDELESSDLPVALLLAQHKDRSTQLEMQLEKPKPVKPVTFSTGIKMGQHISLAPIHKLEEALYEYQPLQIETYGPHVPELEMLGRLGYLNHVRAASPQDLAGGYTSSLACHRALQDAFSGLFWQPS

IC50 (CDK7; ADP‐Glo assay, mean of triplicate experiments, read-out: CDK7 inhibition activity IC50) [µM] | Structure (SMILES) | IC50 (PATU‐T GR; SRB, gemcitabine resistant PATU‐T GR, average ± SEM, triplicate; read-out: IC50 PATU‐GR) | inhibition of cell migration (SUIT 2.28; SUIT 2.28, 1 × IC50 and 4 × IC50) | Bax/Bcl‐2 ratio PDAC3 (Bax/Bcl‐2; 1 × IC50, 24 h after treatment) | Bax/Bcl‐2 ratio PDAC3 (Bax/Bcl‐2; 4 × IC50, 24 h after treatment) | IC50 (PATU‐T GR; read-out: IC50 PATU‐GR, SRB, gemcitabine resistant PATU‐T GR, average ± SEM, triplicate) [µM] | IC50 (PATU‐T GR; read-out: IC50 PATU‐GR; SRB, gemcitabine resistant PATU‐T GR, average ± SEM, triplicate) [µM] | inhibition of cell migration (SUIT 2.28; SUIT 2.28, 1 × IC50) | IC50 (CDK7) [µM]
0.025 | Nc1ncnc2cc(-c3c[nH]c4ccc(Br)cc34)nn12 [Compound 1b, 7‐(5‐Bromo‐1H‐indol‐3‐yl)pyrazolo[1,5‐a][1,3,5]triazin‐4‐amine] | 1.92 µM and 1.9 µM | strong inhibitory effects | 0.44 | 0.01 | – | – | – | –
– | Cn1cc(-c2cc3ncnc(N)n3n2)c2cc(Br)ccc21 [Compound 1g, 7‐(5‐Bromo‐1‐methyl‐1H‐indol‐3‐yl)pyrazolo[1,5‐a][1,3,5]triazin‐4‐amine] | – | – | 0.36 | 0.38 | 2.7 | 2.7 ± 0.5 | greatest inhibition | 0.028
